Experimental data from PubChem BioAssay AID1919004 (Molecular Pharmacology Branch, DTP, NCI, 2023).
“And” between values parts separate entries of the source, which are not always exact repeats. Equal values may be shown once.

System: 883617-216-R-J1-PDC complex spheroids, growth, % test/control
Assay: Anticancer human tumor 883617-216-R-J1-PDC patient-derived bladder carcinoma cell line growth inhibition [AhR]
Details: for viability, T/C: stronger effect = lower value; active = viability on the fitted dose curve at most 10% of control; inactive = the rest
In short: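 Agents were dosed in half-log steps down from roughly clinical Cmax, or from 10 microM where Cmax was unknown, alone and with AhR antagonists. Read-out: percent test/control growth of tumor spheroids containing HUVEC and MSC stromal cells.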

[1] = curve of first compound, second compound 0.1 µM
[2] = curve of first compound, second compound 0.316 µM
[3] = curve of first compound, second compound 1 µM
[4] = curve of first compound, second compound 3.16 µM
[5] = curve of first compound, second compound 10 µM
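Note: exposure lasted 7 days after dosing on day 3 of spheroid growth.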

CC1(C)CCC(CN2CCN(c3ccc(C(=O)NS(=O)(=O)c4ccc(NCC5CCOCC5)c([N+](=O)[O-])c4)c(Oc4cnc5[nH]ccc5c4)c3)CC2)=C(c2ccc(Cl)cc2)C1
inactive: viability, T/C (compound 0.0316 µM) 97.3% and 96.7% and 85.8% | viability, T/C (compound 0.1 µM) 105% and 106% and 130% | viability, T/C (compound 0.316 µM) 101% and 98.7% and 110% | viability, T/C (compound 1 µM) 101% and 98.4% and 92.5% | viability, T/C (compound 3.16 µM) 99.6% and 105% and 72.3% | viability, T/C (compound 10 µM) 30.6% and 64.7% and 33.8%
7.23 µM and > 10 µM and 6.07 µM: IC50 (curve of compound)

CCN(c1cc(-c2ccc(CN3CCOCC3)cc2)cc(C(=O)NCc2c(C)cc(C)[nH]c2=O)c1C)C1CCOCC1 + CC(CO)NC(=O)c1cc(-c2ccc(Cl)cc2)nn(-c2cnn(C)c2)c1=O
> 3 µM: IC50 [1] | IC50 [2] | IC50 [3] | IC50 [4]
2.65 µM: IC50 [5]
inactive: viability, T/C (second compound 0.1 µM, first compound 0.00949 µM) 94.7% | viability, T/C (second compound 0.1 µM, first compound 0.03 µM) 101% | viability, T/C (second compound 0.1 µM, first compound 0.0949 µM) 75.5% | viability, T/C (second compound 0.1 µM, first compound 0.3 µM) 85.5% | viability, T/C (second compound 0.1 µM, first compound 0.949 µM) 118% | viability, T/C (second compound 0.1 µM, first compound 3 µM) 112% | viability, T/C (second compound 0.316 µM, first compound 0.00949 µM) 83.9% | viability, T/C (second compound 0.316 µM, first compound 0.03 µM) 70.8% | viability, T/C (second compound 0.316 µM, first compound 0.0949 µM) 76.5% | viability, T/C (second compound 0.316 µM, first compound 0.3 µM) 88.5% | viability, T/C (second compound 0.316 µM, first compound 0.949 µM) 77.7% | viability, T/C (second compound 0.316 µM, first compound 3 µM) 80.8% | viability, T/C (second compound 1 µM, first compound 0.00949 µM) 96.1% | viability, T/C (second compound 1 µM, first compound 0.03 µM) 63.2% | viability, T/C (second compound 1 µM, first compound 0.0949 µM) 92.5% | viability, T/C (second compound 1 µM, first compound 0.3 µM) 98.4% | viability, T/C (second compound 1 µM, first compound 0.949 µM) 124% | viability, T/C (second compound 1 µM, first compound 3 µM) 86% | viability, T/C (second compound 3.16 µM, first compound 0.00949 µM) 80.7% | viability, T/C (second compound 3.16 µM, first compound 0.03 µM) 85% | viability, T/C (second compound 3.16 µM, first compound 0.0949 µM) 122% | viability, T/C (second compound 3.16 µM, first compound 0.3 µM) 102% | viability, T/C (second compound 3.16 µM, first compound 0.949 µM) 60.4% | viability, T/C (second compound 3.16 µM, first compound 3 µM) 100% | viability, T/C (second compound 10 µM, first compound 0.00949 µM) 62.8% | viability, T/C (second compound 10 µM, first compound 0.03 µM) 88.9% | viability, T/C (second compound 10 µM, first compound 0.0949 µM) 74.5% | viability, T/C (second compound 10 µM, first compound 0.3 µM) 132% | viability, T/C (second compound 10 µM, first compound 0.949 µM) 98.5% | viability, T/C (second compound 10 µM, first compound 3 µM) 45%

CC1(C)CCC(CN2CCN(c3ccc(C(=O)NS(=O)(=O)c4ccc(NCC5CCOCC5)c([N+](=O)[O-])c4)c(Oc4cnc5[nH]ccc5c4)c3)CC2)=C(c2ccc(Cl)cc2)C1 + Cc1ccccc1N=Nc1ccc(NC(=O)c2ccnn2C)c(C)c1
inactive: viability, T/C (second compound 0.1 µM, first compound 0.0316 µM) 97.5% | viability, T/C (second compound 0.1 µM, first compound 0.1 µM) 90.6% | viability, T/C (second compound 0.1 µM, first compound 0.316 µM) 97% | viability, T/C (second compound 0.1 µM, first compound 1 µM) 99.9% | viability, T/C (second compound 0.1 µM, first compound 3.16 µM) 88.5% | viability, T/C (second compound 0.1 µM, first compound 10 µM) 61.4% | viability, T/C (second compound 0.316 µM, first compound 0.0316 µM) 95.5% | viability, T/C (second compound 0.316 µM, first compound 0.1 µM) 85.9% | viability, T/C (second compound 0.316 µM, first compound 0.316 µM) 88.9% | viability, T/C (second compound 0.316 µM, first compound 1 µM) 85.3% | viability, T/C (second compound 0.316 µM, first compound 3.16 µM) 83.9% | viability, T/C (second compound 0.316 µM, first compound 10 µM) 54.9% | viability, T/C (second compound 1 µM, first compound 0.0316 µM) 97.8% | viability, T/C (second compound 1 µM, first compound 0.1 µM) 85.4% | viability, T/C (second compound 1 µM, first compound 0.316 µM) 82.5% | viability, T/C (second compound 1 µM, first compound 1 µM) 80.2% | viability, T/C (second compound 1 µM, first compound 3.16 µM) 79.7% | viability, T/C (second compound 1 µM, first compound 10 µM) 67.1% | viability, T/C (second compound 3.16 µM, first compound 0.0316 µM) 85.7% | viability, T/C (second compound 3.16 µM, first compound 0.1 µM) 82.6% | viability, T/C (second compound 3.16 µM, first compound 0.316 µM) 87.4% | viability, T/C (second compound 3.16 µM, first compound 1 µM) 84.8% | viability, T/C (second compound 3.16 µM, first compound 3.16 µM) 76.5% | viability, T/C (second compound 3.16 µM, first compound 10 µM) 57% | viability, T/C (second compound 10 µM, first compound 0.0316 µM) 81.9% | viability, T/C (second compound 10 µM, first compound 0.1 µM) 85.1% | viability, T/C (second compound 10 µM, first compound 0.316 µM) 82% | viability, T/C (second compound 10 µM, first compound 1 µM) 77% | viability, T/C (second compound 10 µM, first compound 3.16 µM) 74% | viability, T/C (second compound 10 µM, first compound 10 µM) 54.7%
> 10 µM: IC50 [1] | IC50 [2] | IC50 [3] | IC50 [4] | IC50 [5]

COc1cc(Nc2ncc3c(n2)-c2ccc(Cl)cc2C(c2c(F)cccc2OC)=NC3)ccc1C(=O)O
inactive: viability, T/C (compound 0.0316 µM) 88.6% and 85% and 80.8% | viability, T/C (compound 0.1 µM) 78.9% and 73.3% and 119% | viability, T/C (compound 0.316 µM) 75.5% and 72% and 97.8% | viability, T/C (compound 1 µM) 74.1% and 70.4% and 84.2% | viability, T/C (compound 3.16 µM) 71.2% and 71% and 109% | viability, T/C (compound 10 µM) 72.2% and 65.5% and 117%
> 10 µM: IC50 (curve of compound)
